Common to all, as to type: in vivo
The test system of data set [1] is Meloidogyne graminicola. Put plainly: Meloidogyne graminicola infection in wheat cv. Sahara (Example 5). The note with it: infected wheat, foliar spray; for Number of galls per AR / Number of galls: n = 9; for Number of galls: per root system; for reduction in gall numbers: vs control. Here is the method:
For Examples 1, 5 and 10, seeds of the winter wheat cultivar Sahara (Aveve Agrarisch, Landen, Belgium) were used. Seeds were washed in a 10% ethanol solution to remove any residual traces of fungicide and then germinated on wet paper at room temperature for four days; seeds were transferred to SAP tubes and placed in a growth chamber (25° C., 16 hours per day of light). Plants were watered with 8 ml of half-strength Hoagland solution every two days for the first ten days and with 8 ml of full strength Hoagland solution every two days afterwards.
Unless otherwise mentioned, all chemicals for nematode experiments were applied as a foliar spray consisting of the target compound at a concentration of 300 μM together with 0.1% (v/v) Tween 20 surfactant (Calbiochem) in distilled water. Again unless otherwise mentioned, all treatments for the nematode experiments were carried out three times: one and eight days before pathogen inoculation and seven days after pathogen inoculation. In all cases, plants were sprayed until run-off with an atomizer.
(§1) Infection experiments with M. graminicola were performed by inoculating host plants 14 days after transfer to SAP by introducing the desired amount of J2 juveniles next to the root system using a micro pipette. Rice plants (cv. Nipponbare or Kitaake) were inoculated with 250 J2 juveniles per plant; wheat plants (cv. Sahara) were inoculated with 600 J2 juveniles per plant. Plants were harvested 14 days after inoculation. At this point, the plants were phenotyped by measuring the shoot and root length with a ruler, counting the number of adventitious roots and in some experiments by measuring leaf area using the EasyLeafArea software (Easlon and Bloom, 2014) and by determining shoot dry mass after 72 hours of drying in an oven at 70° C. Root systems were then stained in acid fuchsine as described in (Byrd et al., 1983) and left to destain in glycerol with 1 ml/l fuming HCl added for approximately ten days. The number of galls and nematodes was then counted using a binocular microscope.
In this experiment, the compounds PA, MDCA and 4-IBA were tested as foliar spray in the monocot staple crop wheat (Triticum aestivum, cv. Sahara) against the nematode Meloidogyne graminicola. The bacterial compound LPS (lipopolysaccharide), which is a potent inducer of the plant immune system and a known priming agent (Desaki et al., 2006), was also included as a positive control.

For data set [2], the system named is Arabidopsis thaliana seedlings. Put plainly: Primary root elongation of Arabidopsis thaliana seedlings (IC50-root). The note with it: continuous exposure, unpublished data.
Another data set concerns Heterodera schachtii. Put plainly: Heterodera schachtii infection in sugar beet (Example 9). The settings on record: 10 μM PA. Here is the method:
Sugar beet seeds (cultivar Jolgeh) were germinated for five days at 25° C. on sterile potting soil saturated with distilled water. Seedlings were transferred to SAP tubes, which were placed in a growth chamber at 24° C. (16h per day of fluorescent lighting). The first two days after transfer, the tubes were covered with a polyethylene film (Saran Film, Dow Chemicals, Midland, USA) to prevent excessive evaporation. Seedlings were watered three times per week with 8 ml of Hoagland solution.
Cysts were collected from sugar beets (cv. Jolgeh) kept in a growing chamber at 21° C. through a flotation protocol. Plant roots and their surrounding soil were placed in a water bath at room temperature and gently agitated, followed by decanting and sieving to allow collection of cysts. Cysts were are-dried for two days and stored until use.
Hatching of cysts was induced by exposing them to a zinc chloride solution (3 mM in distilled water) at 25° C. for three days. Five 100 μl samples were taken from this suspension. The number of J2 juveniles in each sample was counted and the results were averaged. Sugar beet plants were inoculated fourteen days after transfer to SAP with the required volume of suspension to inoculate each plant with an average of 250 J2 nematodes.
Infection experiments with H. schachtii were performed by inoculating host plants 14 days after transfer to SAP by introducing 250 J2 juveniles to their root system using a micro pipette. Plants were harvested 31 days after inoculation. At this point, the plants were phenotyped by measuring the root and shoot length with a ruler. Cysts were collected through a sucrose flotation protocol and then counted and microscopically assessed for maturity.
To test whether the compounds of the invention are effective against other nematodes and in other plant species, PA was tested on the interaction between the dicot crop sugar beet (Beta vulgaris) and the cyst nematode Heterodera schachtii. At this point, it was not known whether dicots would tolerate PA as well as monocots and so a much lower dose (10 μM) was used instead.

Data set [3] deals with Meloidogyne graminicola. Put plainly: Application regimens of PA, rice - Meloidogyne graminicola (Example 8). Here is the method: Seed coatings were applied by dipping seeds in a coating solution containing 20 g/I high viscosity carboxymethylcellulose (Sigma-Aldrich, Saint Louis, USA) in distilled water as well as 300 μM of the target compound. Seeds were then dried overnight at room temperature.
as §1
Four application regimes for PA on the rice-Meloidogyne graminicola interaction were compared: a seed coating treatment, a single high-dose foliar spray prior to infection, a single high-dose foliar spray after infection and repeated lower-dose foliar sprays throughout the growing period.
One hundred rice seeds (cv. Nipponbare) were randomly divided into five groups of twenty seeds: a control group, seeds that were coated with carboxymethylcellulose containing 300 μM PA (PA coating), a group that would be foliarly sprayed with 100 μM PA solution three times per week (PA continuous), a group that would be sprayed once with a 300 μM PA solution one day prior to nematode inoculation (PA−1 dpi) and a group that would be sprayed once with a 300 μM PA solution seven days after nematode inoculation (PA+7 dpi).
The experiment was carried out as per the materials and methods described in Materials and Methods, sections Oryza sativa (rice) and Meloidogyne graminicola culture.

[4] abbreviates: infected sugar beet, mean ± SD, n = 8.
[5] abbreviates: PA +7 dpi: sprayed once with 300 μM PA seven days after inoculation, n = 8.
[6] abbreviates: PA coating: seeds coated with carboxymethylcellulose solution containing 300 μM PA, n = 7.
Setting [7] is: PA continuous: sprayed three times a week with 100 μM PA, n = 9.
The mark [8] stands for this setting: PA −1 dpi: sprayed once with 300 μM PA one day before inoculation, n = 8.

SMILES strings stand for the structures.

Turning to `O=C(O)/C=C/c1ccc2c(c1)OCO2` [MDCA, 3,4-methylenedioxycinnamic acid], in the data set with Meloidogyne graminicola [1], the “Number of galls per AR” value turned out to be 2.4 ± 0.8, the Number of galls is given as 24.6 ± 6.3 and the “reduction in gall numbers” value was −35%.
Compound `O=C(O)c1ccc2c(c1)OCO2` [PA, Piperonylic acid] registered a concentration for half-maximal inhibition (IC50) in data set [2] of 40 µM. For the same compound, in the data set on Meloidogyne graminicola [1], the “Number of galls per AR” value was 2.5 ± 1.1, the Number of galls was 25.6 ± 6.5 and the “reduction in gall numbers” value is −33%. Moreover, in the data set on Heterodera schachtii (setting [4]), the “Number of mature cysts” value is recorded as 7.5 ± 4.4, the “Proportion of mature cysts” value turned out to be 0.48 ± 0.25 and the “Total number of cysts” value is 15.3 ± 0.7. Besides, the “reduction of the number of Heterodera schachtii nematodes” value in the data set with Heterodera schachtii (sugar beet, statistically insignificant) stood at 20%. Besides, in the data set on Meloidogyne graminicola [3] (setting [5]), the “Fraction of small galls” value was found to be 0.91 ± 0.11, the Number of galls was found to be 18.1 ± 13.6 and the “Number of galls per AR” value is on record as 1.1 ± 0.6. In the data set on Meloidogyne graminicola [3] (setting [6]), the “Fraction of small galls” value is listed as 0.96 ± 0.04, the Number of galls was 19.0 ± 11.0 and the “Number of galls per AR” value is on record as 1.3 ± 0.8. Further, in the data set with Meloidogyne graminicola [3] (setting [7]), the “Fraction of small galls” value is 0.95 ± 0.08, the Number of galls came out at 18.1 ± 13.1 and the “Number of galls per AR” value is listed as 1.2 ± 0.7. Also, the “mortality of seedlings from seeds coated with PA” value in the data set on Meloidogyne graminicola [3] (PA seed coating, two out of ten in the control group, not statistically significant) is on record as “four of ten”. In the data set with Meloidogyne graminicola [3] (setting [8]), the “Fraction of small galls” value is 0.91 ± 0.06, the Number of galls is 25.3 ± 9.4 and the “Number of galls per AR” value is listed as 1.4 ± 0.5.

What is called IC50 is the concentration needed to halve the response being measured.

The record behind these values is patent US11992011B2, “Compounds for controlling plant pathogens” (VIB VZW, priority 2017, dated 2024).
